In ChEMBL document CHEMBL1667785, “Synthesis and structure-analgesic activity relationships of a novel series of monospirocyclopiperazinium salts (MSPZ)” (Bioorg Med Chem Lett, 2011):

Key:
Mus musculus = assay: Analgesic activity in mouse assessed as inhibition of acetic acid-induced writhing at 20 umol/kg, sc administered 30 mins before to acetic acid challenge measured after 5 mins for 10 mins relative to control; assay type: functional; parameters: scale not given: the % may be the effect or the level left
[1] = target: Neuronal acetylcholine receptor subunit alpha-7 (Homo sapiens, UniProt P36544); assay: Binding affinity to alpha7 nAChR
[2] = target: Neuronal acetylcholine receptor subunit beta-2 (Homo sapiens, UniProt P17787); assay: Binding affinity to beta2 nAChR
Neuronal acetylcholine receptor subunit beta-2, sequence (P17787 whole entry): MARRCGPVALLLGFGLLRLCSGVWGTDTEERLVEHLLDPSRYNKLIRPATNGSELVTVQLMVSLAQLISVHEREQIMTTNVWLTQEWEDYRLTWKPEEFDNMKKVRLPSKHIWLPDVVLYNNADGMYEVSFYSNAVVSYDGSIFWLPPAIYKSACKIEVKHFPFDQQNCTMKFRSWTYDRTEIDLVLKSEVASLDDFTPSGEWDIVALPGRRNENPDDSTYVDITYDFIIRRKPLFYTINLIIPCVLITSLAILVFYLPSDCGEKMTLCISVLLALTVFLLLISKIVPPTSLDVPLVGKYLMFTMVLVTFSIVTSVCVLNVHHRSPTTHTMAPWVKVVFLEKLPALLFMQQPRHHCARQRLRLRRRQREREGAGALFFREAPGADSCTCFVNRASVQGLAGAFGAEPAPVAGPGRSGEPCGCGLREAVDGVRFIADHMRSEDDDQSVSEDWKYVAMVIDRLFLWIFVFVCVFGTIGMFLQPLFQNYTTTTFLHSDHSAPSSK

Neuronal acetylcholine receptor subunit alpha-7, sequence (P36544 whole entry): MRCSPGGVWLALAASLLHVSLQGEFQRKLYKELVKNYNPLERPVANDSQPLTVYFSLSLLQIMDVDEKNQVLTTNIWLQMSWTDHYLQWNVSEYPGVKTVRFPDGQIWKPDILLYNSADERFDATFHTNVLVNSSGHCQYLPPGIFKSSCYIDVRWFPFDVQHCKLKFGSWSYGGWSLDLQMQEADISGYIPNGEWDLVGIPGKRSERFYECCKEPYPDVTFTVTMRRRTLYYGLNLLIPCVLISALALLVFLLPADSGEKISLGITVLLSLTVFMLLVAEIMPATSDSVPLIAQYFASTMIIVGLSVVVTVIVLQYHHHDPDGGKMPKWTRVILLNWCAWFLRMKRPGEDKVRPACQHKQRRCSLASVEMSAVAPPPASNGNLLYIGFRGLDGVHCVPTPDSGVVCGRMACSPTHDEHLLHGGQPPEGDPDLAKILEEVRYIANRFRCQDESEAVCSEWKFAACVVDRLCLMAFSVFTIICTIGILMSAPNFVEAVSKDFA

SMILES	Activity (Mus musculus)	further results
COc1ccc(N2CC[N+](C)(C)CC2)cc1.[Cl-]	56%	–
CCCC[N+]1(CCCC)CCN(c2ccc(OC)cc2)CC1.[Cl-]	54%	–
COc1ccc(N2CC[N+](C)(Cc3ccccc3)CC2)cc1.[Cl-]	43%	–
COc1ccc(N2CC[N+]3(CCCC3)CC2)cc1.[Cl-]	41%	–
COc1ccc(N2CC[N+]3(CCCCC3)CC2)cc1.[Cl-]	26%	–
COc1ccc(N2CC[N+]3(CCCCCC3)CC2)cc1.[Cl-]	28%	–
COc1ccc(N2CC[N+]3(CCOCC3)CC2)cc1.[Cl-]	41%	–
COc1ccc(N2CC[N+]3(CC2)CC(C)OC(C)C3)cc1.[Cl-] (centres undefined)	21%	–
COc1ccc(N2CC[N+]3(CCNCC3)CC2)cc1.[Cl-]	5%	–
COc1ccc(N2CC[N+]3(CCN(C)CC3)CC2)cc1.[Cl-]	32%	–
COc1ccc(N2CC[N+]3(CCN(CCc4ccccc4)CC3)CC2)cc1.[Cl-]	27%	–
COc1ccc(N2CC[N+]3(CC2)CCN(c2ccc(OC)cc2)CC3)cc1.[Cl-]	17%	–
COc1ccc(N2CC[N+]3(CCN(C(=O)c4ccccc4)CC3)CC2)cc1.[Cl-]	50%	–
COc1ccc(N2CC[N+]3(CCc4ccccc43)CC2)cc1.[Cl-]	63%	–
[Cl-].c1ccc(N2CC[N+]3(CCc4ccccc43)CC2)cc1	28%	–
CS(=O)(=O)[O-].O=[N+]([O-])c1ccc(N2CC[N+]3(CCc4ccccc43)CC2)cc1	54%	–
CS(=O)(=O)[O-].O=[N+]([O-])c1cccc(N2CC[N+]3(CCc4ccccc43)CC2)c1	39%	–
COc1cccc(N2CC[N+]3(CCc4ccccc43)CC2)c1.[Cl-]	37%	–
Oc1cccc(N2CC[N+]3(CCc4ccccc43)CC2)c1.[Cl-]	34%	–
CC(=O)Nc1cccc(N2CC[N+]3(CCc4ccccc43)CC2)c1.[Cl-]	39%	–
Clc1ccccc1N1CC[N+]2(CCc3ccccc32)CC1.[Cl-]	44%	–
COc1ccccc1N1CC[N+]2(CCc3ccccc32)CC1.[Cl-]	39%	–
CC(COc1ccc(/C=C\c2ccccc2)cc1)[N+](C)(C)C (centres undefined)	–	Ki [1]: 0.057 µM; Ki [2]: 39 µM
